Each block holds one molecule with its values, some of them ahead of it. Calls of active or inactive are those of the source.
Key:
[1] = inhibitors acting on PAX2 in cells – cell-based, plate reader, dry powder samples, selectivity assay for PAX8 inhibitor project, dose response (AID 743048); type: functional;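 note: HEK293 cells carrying a WT1 promoter luciferase reporter driven by expressed Pax2; potency is for inhibition of Pax2 driven reporter signal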
[2] = COV434 cell viability loss – plate reader, dry powder, SA7, cytotoxicity control for PAX8 inhibitor project, dose response (AID 743145); type: functional, cell-based
[3] = COV362 cell viability loss – plate reader, dry powder, SA12, cytotoxicity control for PAX8 inhibitor project, dose response (AID 743144); type: functional, cell-based
[4] = OVCAR-3 cell viability loss – plate reader, dry powder samples, PAX8 inhibitor project, dose response (AID 743044); type: functional, cell-based
[5] = OV-90 cell viability loss – plate reader, dry powder, SA8, PAX8 inhibitor project, dose response (AID 743149); type: functional, cell-based
[6] = general cell-killing toxicity readout – plate reader, dry powder samples, cytotoxicity control for PAX8 inhibitor project, dose response (AID 743021); type: functional, cell-based
[7] = PAX5 cellular inhibition readout – cell-based, plate reader, dry powder samples, selectivity assay for PAX8 inhibitor project, dose response (AID 743047); type: functional;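 note: HEK293 cells carrying a Pax5 driven CD19 promoter luciferase reporter; potency of inhibitors that lower reporter luminescence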
[8] = OVCAR4 cell viability loss – plate reader, dry powder, SA11, cytotoxicity control for PAX8 inhibitor project, dose response (AID 743150); type: functional, cell-based; conditions: OVCAR-4
[9] = PAX8-dependent cell viability loss – plate reader, dry powder, dose response (AID 743049); type: functional, cell-based
[10] = IGROV1 cell killing – plate reader, dry powder samples, PAX8 inhibitor project, dose response (AID 743043); type: functional, cell-based; conditions: IGROV-1
[11] = viability loss in HepG2 hepatoma cells – cell-based, cherry-picks, set 5, cytotoxicity control, dose response (AID 1053118); type: functional
[12] = inhibition of fibronectin matrix deposition – AH1F cells, Alexa488-fibronectin fluorescence, cherry-pick, set 2, dose response (AID 1117283); type: functional, cell-based
[13] = YAP1 overexpression rescue of CTGF inhibition – DLD1 cells, RT-qPCR, cherry-pick, mechanism study for YAP1 pathway inhibitor project, dose response (AID 1053127); type: functional, cell-based; conditions: DLD-1
[14] = toxicity to human hepatoma HepG2 cells – cell-based, cherry-picked samples, cytotoxicity control, dose response (AID 1159577); type: functional
[15] = P. falciparum Dd2 growth inhibitors, dose response, SYBR Green, cherry-picked samples (AID 1159567); type: functional, cell-based
[16] = CTGF mRNA reduction in DLD1 cells – cell-based, DLD1 colon cancer, RT-qPCR, cherry-pick, dose response (AID 1053122); type: functional; conditions: Cancer cell lines
[17] = molecular target: NAD-dependent protein deacylase sirtuin-5, mitochondrial (Homo sapiens, UniProt Q9NXA8); experiment: blockers of sirtuin-5 peptide desuccinylation – biochemical, fluorescence imaging, cherry-pick, set 6, dose response (AID 720597)
[18] = cytotoxicity in MITF-independent A375 cells – cell-based, CellTiter-Glo luminescence, dry powder, set 4, counter-screen for MITF inhibitor project, dose response (AID 624364); type: functional; conditions: A-375;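 note: A375 melanoma cells are MITF independent so this is a counter screen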
[19] = viability loss in MITF-independent A375 cells – cell-based, CellTiter-Glo luminescence, dry powder, set 2, counter-screen for MITF inhibitor project, dose response (AID 624489); type: functional; conditions: A-375;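 note: actives are compounds lowering A375 viability meaning general cytotoxicity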
[20] = cells; conditions: HEK293
[21] = molecular target: T1, Low molecular weight phosphotyrosine protein phosphatase (Homo sapiens, UniProt P24666); experiment: inhibition of human LMPTP enzyme activity – biochemical, absorbance, pNPP substrate, LMPTP-A isoform, set 2, orthogonal assay, dose response (AID 743308); type: functional
T1 sequence (P24666 whole entry): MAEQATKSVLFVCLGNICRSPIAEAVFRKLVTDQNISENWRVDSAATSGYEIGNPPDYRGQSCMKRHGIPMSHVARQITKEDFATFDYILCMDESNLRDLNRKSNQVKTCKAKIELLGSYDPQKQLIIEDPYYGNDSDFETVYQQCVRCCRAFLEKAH

[22] = molecular target: T1, Low molecular weight phosphotyrosine protein phosphatase; experiment: inhibition of LMPTP-A enzymatic activity – biochemical, OMFP substrate, fluorescence intensity, set 2, dose response (AID 743307); type: functional
[23] = molecular target: G-protein coupled receptor 183 (Homo sapiens, UniProt P32249); experiment: SAR confirmation of small molecule antagonists of the EBI2 receptor via a luminescent beta-arrestin assa.; type: functional
[24] = SNU-C1 cell viability reduction, dose response, CellTiter-Glo luminescence (AID 1117323); type: functional, cell-based
[25] = HCT116 cell viability decrease, GSK3B pretreatment – CellTiter-Glo, IC50, dose response (AID 1117339); type: functional; conditions: HCT-116
[26] = RKO cell viability reduction, dose response, CellTiter-Glo luminescence (AID 1117322); type: functional
[27] = cytotoxicity toward Colo320 cells – cell-based, CellTiter-Glo luminescence, IC50, dose response (AID 1117334); type: functional; conditions: COLO 320
[28] = cytotoxicity toward HCT116 cells – cell-based, CellTiter-Glo luminescence, IC50, dose response (AID 1117332); type: functional; conditions: HCT-116
[29] = Reduced DLD-1 viability, concentration-response, CellTiter-Glo luminescence (AID 1117352); type: functional
[30] = CellTiter-Glo luminescence survival assay, SW480 colon tumor line, concentration-response curve, half-maximal inhibitory concentration (AID 1117338); type: functional
[31] = rise of 2N DNA cells, HeLa – IC50, dose response (AID 1117349); type: functional, cell-based
[32] = cytotoxicity toward HT-29 cells – cell-based, CellTiter-Glo luminescence, IC50, dose response (AID 1117330); type: functional
[33] = rise of 4N DNA cells, HeLa – IC50, dose response (AID 1117351); type: functional, cell-based

Sequence of G-protein coupled receptor 183 (P32249 whole entry): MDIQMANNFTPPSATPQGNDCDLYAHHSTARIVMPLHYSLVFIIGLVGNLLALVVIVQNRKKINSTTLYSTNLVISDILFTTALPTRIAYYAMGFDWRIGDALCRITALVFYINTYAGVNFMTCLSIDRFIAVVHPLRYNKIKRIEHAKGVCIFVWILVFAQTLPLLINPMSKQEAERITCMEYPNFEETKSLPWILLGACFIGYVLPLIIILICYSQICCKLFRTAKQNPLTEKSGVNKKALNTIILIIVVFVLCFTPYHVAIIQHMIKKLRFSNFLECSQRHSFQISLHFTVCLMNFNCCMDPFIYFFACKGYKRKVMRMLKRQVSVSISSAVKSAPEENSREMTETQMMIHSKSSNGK
Sequence of NAD-dependent protein deacylase sirtuin-5, mitochondrial (Q9NXA8 whole entry): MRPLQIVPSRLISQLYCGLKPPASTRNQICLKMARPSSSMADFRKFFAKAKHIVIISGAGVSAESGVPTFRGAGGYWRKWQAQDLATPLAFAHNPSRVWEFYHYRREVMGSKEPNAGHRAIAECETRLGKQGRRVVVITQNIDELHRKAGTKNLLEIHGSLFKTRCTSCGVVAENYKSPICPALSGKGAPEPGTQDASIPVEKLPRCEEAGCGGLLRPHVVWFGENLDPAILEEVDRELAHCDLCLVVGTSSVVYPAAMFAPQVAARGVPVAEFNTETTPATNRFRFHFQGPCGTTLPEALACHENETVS

Compound: CN(C)CCN(C(=O)/C=C/c1cccs1)c1nc2c(F)cc(F)cc2s1
AC50 [1]: > 100 µM (inactive) | AC50 [2]: 44.9 µM (active) | AC50 [3]: 21.2 µM (active) | AC50 [4]: 29.1 µM (active) | AC50 [5]: 32.8 µM (active) | AC50 [6]: 11.6 µM (active) | AC50 [7]: > 100 µM (inactive) | AC50 [8]: 31.2 µM (active) | AC50 [9]: 19.4 µM (active) | AC50 [10]: 34.3 µM (active)

Compound: COc1ccc([N+](=O)[O-])cc1NS(=O)(=O)c1ccc(C(=O)N2CCCC2)cc1
AC50 [11]: > 52 µM (inactive) | AC50 [12]: 51 µM (active)

Compound: C[C@@H]1CN([C@H](C)CO)C(=O)c2ccccc2-c2ccccc2CO[C@@H]1CN(C)Cc1ccc(Oc2ccccc2)cc1
AC50 [13]: 7.84 µM (active) | AC50 [14]: 19.8 µM (active) | AC50 [15]: 6.67 µM (active) | AC50 [16]: 6.79 µM (active)

AC50 [17]: 13.2 µM (active)
Compound: COCC(=O)N1C[C@H](C)[C@H](OC)CN(C)C(=O)c2cc(NC(=O)C3CCC3)ccc2OC[C@@H]1C

Compound: CCN1CCN(C2=C(NS(=O)(=O)c3ccc(Br)s3)C(=O)c3ccccc3C2=O)CC1
AC50 [18]: > 70 µM (inactive) | AC50 [19]: > 70 µM (inactive)

Compound: Fc1ccc2c(c1)[nH]c(=S)n2CCOc1ccccc1
AC50 [20]: > 52 µM (inactive)

IC50 [21]: > 80 µM (inactive) | IC50 [22]: 23.2 µM (inactive)
Compound: CCCCNc1nc(-c2ccccc2)nc2ccccc12

IC50 [23]: 9.58 nM (active)
Compound: COc1ccc(/C=C/C(=O)N2CCN(S(=O)(=O)c3ccc(Br)cc3)CC2)cc1

Compound: CCC(=O)c1ccc(O)cc1 [PAROXYPROPIONE]
IC50 [24]: > 20 µM (inactive) | IC50 [25]: 6.25 µM (inactive) | IC50 [26]: 7.8 µM (inactive) | IC50 [27]: > 20 µM (inactive) | IC50 [28]: > 20 µM (inactive) | IC50 [29]: 6.67 µM (inactive) | IC50 [30]: 4.1 µM (active) | IC50 [31]: > 10 µM (inactive) | IC50 [32]: > 20 µM (inactive) | IC50 [33]: > 10 µM (inactive)

Source: ChEMBL document CHEMBL1201862, “PubChem BioAssay data set” (2004)
